Measurements from patent US20110306597A1, “Nicotinamide Derivatives” (priority 2008, published 2011).

Target: human recombinant H-PGDS (Homo sapiens, UniProt O60760)
Assay: Fluorescence Intensity h-PGDS TBA Enzyme Assay
Format: biochemical
Conditions: 1:175,000 human recombinant H-PGDS, highest inhibitor concentration typically 1 μM
Outline: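 Readout is PGH2 depletion: after a 42 s reaction with 5.0 μM PGH2 and 2.5 mM glutathione (pH 8.0 Tris, 10 min inhibitor preincubation), Fe(II) converts leftover PGH2 to MDA, which forms a fluorescent TBA complex. IC50s come from 11-point, 3-fold duplicate curves, 4-parameter fit.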

Chain of human recombinant H-PGDS (O60760 whole entry): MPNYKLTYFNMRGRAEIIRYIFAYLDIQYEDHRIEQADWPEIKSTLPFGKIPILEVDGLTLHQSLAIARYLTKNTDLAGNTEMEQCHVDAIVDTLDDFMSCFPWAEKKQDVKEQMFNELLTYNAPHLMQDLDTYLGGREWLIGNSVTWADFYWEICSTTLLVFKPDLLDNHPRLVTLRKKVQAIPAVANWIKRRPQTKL

Row | SMILES | IC50 [nM]
1 | O=C(NCc1ccc(Cl)cc1)c1ccc(-c2ccccc2)nc1 [Example 517, N-(4-Chlorobenzyl)-6-phenylnicotinamide] | 11.8
2 | CSc1ccc(CNC(=O)c2ccc(-c3ccccc3)nc2)cc1 [Example 518, N-[4-(Methylthio)benzyl]-6-phenylnicotinamide] | 17.5
3 | COc1ccc(CNC(=O)c2ccc(-c3ccccc3)nc2)cc1 [Example 519, N-(4-Methoxybenzyl)-6-phenylnicotinamide] | 8.3
4 | O=C(NCCNc1ccccc1)c1ccc(-c2ccccc2)nc1 [Example 520, N-(2-Anilinoethyl)-6-phenylnicotinamide] | 8.8
5 | O=C(Nc1ccc(F)cc1)c1ccc(-c2ccccc2)nc1 [Example 521, N-(4-Fluorophenyl)-6-phenylnicotinamide] | 4.82
6 | O=C(NCc1ccc(Cl)c(Cl)c1)c1ccc(-c2ccccc2)nc1 [Example 522, N-(3,4-Dichlorobenzyl)-6-phenylnicotinamide] | 25
7 | COC(=O)c1ccc(CNC(=O)c2ccc(-c3ccccc3)nc2)cc1 [Example 523, Methyl 4-({[(6-phenylpyridin-3-yl)carbonyl]amino}methyl) benzoate] | 14.1
8 | O=C(NCc1nnc(-c2cccnc2)[nH]1)c1ccc(-c2cccc(F)c2)nc1 [Example 524, 6-(3-Fluorophenyl)-N-[(5-pyridin-3-yl-4H-1,2,4-triazol-3-yl)methyl]nicotinamide] | 9.36
9 | O=C(NCC1CCCCO1)c1ccc(-c2cccc(F)c2)nc1 (stereo not drawn) [Example 525, 6-(3-Fluorophenyl)-N-(tetrahydro-2H-pyran-2-ylmethyl)nicotinamide] | 68.5
10 | CC(C)[C@H](N)C(=O)NC(=O)c1ccc(-c2cccc(F)c2)nc1 [Example 526, 6-(3-Fluorophenyl)-N-L-valylnicotinamide] | 1510
11 | Cc1cccc(NC(=O)c2ccc(-c3ccccc3)nc2)c1C [Example 527, N-(2,3-Dimethylphenyl)-6-phenylnicotinamide] | 10.3
12 | O=C(NCC1COc2ccccc2C1)c1ccc(-c2cccc(F)c2)nc1 (stereo not drawn) [Example 528, N-(3,4-Dihydro-2H-chromen-3-ylmethyl)-6-(3-fluorophenyl)nicotinamide] | 6.45
13 | Cc1ccc2c(c1)C(NC(=O)c1ccc(-c3cccc(F)c3)nc1)CC(C)(C)O2 (stereo not drawn) [Example 530, 6-(3-Fluorophenyl)-N-(2,2,6-trimethyl-3,4-dihydro-2H-chromen-4-yl)nicotinamide] | 3.03
14 | Cc1ccc2c(c1C)OCCC2NC(=O)c1ccc(-c2cccc(F)c2)nc1 (stereo not drawn) [Example 531, N-(7,8-Dimethyl-3,4-dihydro-2H-chromen-4-yl)-6-(3-fluorophenyl)nicotinamide] | 3.34
15 | Cc1cccc2c1OCCC2NC(=O)c1ccc(-c2cccc(F)c2)nc1 (stereo not drawn) [Example 532, 6-(3-Fluorophenyl)-N-(8-methyl-3,4-dihydro-2H-chromen-4-yl)nicotinamide] | 3.94
16 | Cc1cccc2c1OCCC2NC(=O)c1ccc(-c2cc(F)cc(F)c2)nc1 (stereo not drawn) [Example 533, 6-(3,5-Difluorophenyl)-N-(8-methyl-3,4-dihydro-2H-chromen-4-yl)nicotinamide] | 8.79
17 | O=C(NCC1C(=O)Nc2ccc(F)cc21)c1ccc(-c2cccc(F)c2)nc1 (stereo not drawn) [Example 534, N-[(5-Fluoro-2-oxo-2,3-dihydro-1H-indol-3-yl)methyl]-6-(3-fluorophenyl)nicotinamide] | 1.04
18 | O=C(NCc1coc(-c2ccc(F)cc2)n1)c1ccc(-c2cccc(F)c2)nc1 [Example 535, 6-(3-Fluorophenyl)-N-{[2-(4-fluorophenyl)-1,3-oxazol-4-yl]methyl}nicotinamide] | 5.56
19 | Cc1ccc2c(c1)C(NC(=O)c1ccc(-c3cc(F)cc(F)c3)nc1)CC(C)(C)O2 (stereo not drawn) [Example 536, 6-(3,5-Difluorophenyl)-N-(2,2,6-trimethyl-3,4-dihydro-2H-chromen-4-yl)nicotinamide] | 53.5
20 | CCC(C)C(CO)NC(=O)c1ccc(-c2cccc(F)c2)nc1 (stereo not drawn) [Example 537, 6-(3-Fluorophenyl)-N-[1-(hydroxymethyl)-2-methylbutyl]nicotinamide] | 61.2
21 | Cc1ccc2c(c1C)OCCC2NC(=O)c1ccc(-c2cc(F)cc(F)c2)nc1 (stereo not drawn) [Example 538, 6-(3,5-Difluorophenyl)-N-(7,8-dimethyl-3,4-dihydro-2H-chromen-4-yl)nicotinamide] | 30.1
22 | CC(C)(C)[C@@H](CO)NC(=O)c1ccc(-c2cccc(F)c2)nc1 [Example 539, 6-(3-Fluorophenyl)-N-[(1S)-1-(hydroxymethyl)-2,2-dimethylpropyl]nicotinamide] | 64.4
23 | COc1ccc(CNC(=O)c2ccc(-c3ccccc3)nc2)cc1OC [Example 540, N-(3,4-Dimethoxybenzyl)-6-phenylnicotinamide] | 5.41

Row | SMILES | IC50 [nM]
24 | Cc1ccccc1CNC(=O)c1ccc(-c2cc(F)cc(F)c2)nc1 [Example 541, 6-(3,5-Difluorophenyl)-N-(2-methylbenzyl)nicotinamide] | 16.9
25 | O=C(NCC1COc2ccccc2C1)c1ccc(-c2cc(F)cc(F)c2)nc1 (stereo not drawn) [Example 542, 6-(3,5-Difluorophenyl)-N-(3,4-dihydro-2H-chromen-3-ylmethyl)nicotinamide] | 39.1
26 | COc1cc(F)cc(-c2ccc(C(=O)NCCCN3CCCC3=O)cn2)c1 [Example 543, 6-(3-Fluoro-5-methoxyphenyl)-N-[3-(2-oxopyrrolidin-1-yl)propyl]nicotinamide] | 104
27 | Cc1nc(CCNC(=O)c2cnc(-c3cccc(F)c3)c(Cl)c2)cs1 [Example 544, 5-Chloro-6-(3-fluorophenyl)-N-[2-(2-methyl-1,3-thiazol-4-yl)ethyl]nicotinamide] | 12
28 | COc1ccc(CNC(=O)c2cnc(-c3cccc(F)c3)c(Cl)c2)cc1OC [Example 545, 5-Chloro-N-(3,4-dimethoxybenzyl)-6-(3-fluorophenyl)nicotinamide] | 14.2
29 | O=C(NCc1nc2ccccc2s1)c1cnc(-c2cccc(F)c2)c(Cl)c1 [Example 546, N-(1,3-Benzothiazol-2-ylmethyl)-5-chloro-6-(3-fluorophenyl)nicotinamide] | 59.6
30 | O=C(NCC1COc2ccccc2C1)c1cnc(-c2cccc(F)c2)c(Cl)c1 (stereo not drawn) [Example 547, 5-Chloro-N-(3,4-dihydro-2H-chromen-3-ylmethyl)-6-(3-fluorophenyl)nicotinamide] | 98.4
31 | COc1cc(CNC(=O)c2cnc(-c3cccc(F)c3)c(Cl)c2)cc2c1OCCO2 [Example 548, 5-Chloro-6-(3-fluorophenyl)-N-[(8-methoxy-2,3-dihydro-1,4-benzodioxin-6-yl)methyl]nicotinamide] | 54.7
32 | O=C(NCC(O)c1ccccc1F)c1cnc(-c2cccc(F)c2)c(Cl)c1 (stereo not drawn) [Example 549, 5-Chloro-6-(3-fluorophenyl)-N-[2-(2-fluorophenyl)-2-hydroxyethyl]nicotinamide] | 37.9
33 | CCCOCCCNC(=O)c1cnc(-c2cccc(F)c2)c(Cl)c1 [Example 550, 5-Chloro-6-(3-fluorophenyl)-N-(3-propoxypropyl)nicotinamide] | 30.4
34 | O=C(NCCCn1ncc2ccccc21)c1cnc(-c2cccc(F)c2)c(Cl)c1 [Example 551, 5-Chloro-6-(3-fluorophenyl)-N-[3-(1H-indazol-1-yl)propyl]nicotinamide] | 84.7
35 | O=C(NCCN1CCOCC1)c1cnc(-c2cccc(F)c2)c(Cl)c1 [Example 552, 5-Chloro-6-(3-fluorophenyl)-N-(2-morpholin-4-ylethyl)nicotinamide] | 60.8
36 | O=C(NCCC1CCCCO1)c1cnc(-c2cccc(F)c2)c(Cl)c1 (stereo not drawn) [Example 553, 5-Chloro-6-(3-fluorophenyl)-N-[2-(tetrahydro-2H-pyran-2-yl)ethyl]nicotinamide] | 31.8
37 | CNS(=O)(=O)c1ccc(CNC(=O)c2cnc(-c3cccc(F)c3)c(Cl)c2)cc1 [Example 554, 5-Chloro-6-(3-fluorophenyl)-N-{4-[(methylamino)sulfonyl]benzyl}nicotinamide] | 223
38 | COc1cc(F)cc(-c2ccc(C(=O)NCc3ccc(OC)c(OC)c3)cn2)c1 [Example 556, N-(3,4-Dimethoxybenzyl)-6-(3-fluoro-5-methoxyphenyl)nicotinamide] | 90
39 | CCCOCCCNC(=O)c1ccc(-c2cc(F)cc(OC)c2)nc1 [Example 557, 6-(3-Fluoro-5-methoxypheny)-N-(3-propoxypropyl)nicotinamide] | 89.6
40 | COc1cc(F)cc(-c2ccc(C(=O)NCC3CCN(C(C)=O)CC3)cn2)c1 [Example 558, N-[(1-Acetylpiperidin-4-yl)methyl]-6-(3-fluoro-5-methoxyphenyl)nicotinamide] | 119
41 | CNS(=O)(=O)c1ccc(CNC(=O)c2ccc(-c3cc(F)cc(OC)c3)nc2)cc1 [Example 559, 6-(3-Fluoro-5-methoxyphenyl)-N-{4-[(methylamino)sulfonyl]benzyl}nicotinamide] | 440
42 | COc1cc(F)cc(-c2ccc(C(=O)NCCC3CCCCO3)cn2)c1 (stereo not drawn) [Example 560, 6-(3-Fluoro-5-methoxyphenyl)-N-[2-(tetrahydro-2H-pyran-2-yl)ethyl]nicotinamide] | 129
43 | CN(C)CCOc1ccc(CNC(=O)c2cnc(-c3cccc(F)c3)c(Cl)c2)cc1 [Example 561, 5-Chloro-N-{4-[2-(dimethylamino)ethoxy]benzyl}-6-(3-fluorophenyl)nicotinamide] | 19.8
44 | Cc1ccc(C#N)c(N2C[C@H](NC(=O)c3ccc(-c4cccc(F)c4)nc3)[C@@H](O)C2)n1 [Example 562, N-[(3S,4S)-1-(3-Cyano-6-methylpyridin-2-yl)-4-hydroxypyrrolidin-3-yl]-6-(3-fluorophenyl)nicotinamide] | 4.89
45 | Cc1cc(C)c(C#N)c(N2C[C@H](NC(=O)c3ccc(-c4cccc(F)c4)nc3)[C@@H](O)C2)n1 [Example 563, N-[(3S,4S)-1-(3-Cyano-4,6-dimethylpyridin-2-yl)-4-hydroxypyrrolidin-3-yl]-6-(3-fluorophenyl)nicotinamide] | 5.15
